Measurements published in US20040022834A1, “Pharmaceutical oxan preparation” (priority 2000, published 2004).
Where a name gives a salt, the structure may show the parent alone. Read-outs that look alike come from different tables or passages of the source.

What was measured:
[1] = format: in vitro ADME
Description: These values are sufficiently high to make it possible to aim at the daily administration, from a transdermal patch, of a quantity of efaroxan base or hydrochloride in the mg range.
FIG. 4 represents the quantities of idazoxan base and hydrochloride released ex vivo using animal skins, in the case of aqueous alcoholic solutions according to the invention.

[2] = ex vivo permeation on animal skins after pretreatment with a promoter (reference batch CM586); format: in vitro ADME; settings: ratio of quantity accumulated at 24 h, trial (skin pretreated with promoter) to reference batch CM586; as dexefaroxan base
Description: FIG. 3 represents the quantities expressed as dexefaroxan base of the accumulated quantities (μg/cm^2); it involves comparing the reference batch CM586 with or without individual pretreatment with promoters.

permeation index (PI) [2]	Compound	quantities accumulated at 24 hours [1]	quantities accumulated at 24 hours ([1]; 24 h, 10 % m/v)	further results
–	CC[C@]1(C2=NCCN2)Cc2ccccc2O1 [dexefaroxan base]	~8.5 mg/cm^2	–	–
–	CC[C@]1(C2=NCCN2)Cc2ccccc2O1 [dexefaroxan hydrochloride]	–	~1.0 mg/cm^2	–
2.4	Mannitan oleate	–	–	–
2.6	Sorbitan monooleate	–	–	–
–	c1ccc2c(c1)OCC(C1=NCCN1)O2 (stereo not shown) [idazoxan hydrochloride, 2-(1,4-benzodiosan-2-yl)-2-imidazoline]	–	~0.25 mg/cm^2	–
–	c1ccc2c(c1)OCC(C1=NCCN1)O2 (stereo not shown) [idazoxan base, 2-(1,4-benzodiosan-2-yl)-2-imidazoline]	~5 mg/cm^2	–	quantities released at 24 h, base form versus hydrochloride [1]: significantly higher
